Experimental data published in patent US12551173B2, “System and method for single-scan rest-stress cardiac PET” (The General Hospital Corporation, priority 2012, dated 2026).
Several values for one entry are separate records, joined by “and”; a condition that tells them apart may be missing. Identical values can stand only once. Values belong to the molecule of their own block, whether it stands above or below them.

Assays:
myocardial blood flow = details: intravenous infusion, from start of infusion; cited from earlier work
myocardium [1] = assay: Kinetic analysis of clinical 18F-Flurpiridaz rest and stress PET, two-compartment tissue model, three subjects; type: in vivo, human; design: unit not given here
Protocol: To evaluate and compare the methods proposed in this work, simulation studies were performed based on the kinetic parameters derived from human studies conducted with ^18F-Flurpiridaz, formerly known as ^18F-BMS747158-02 (Lantheus Medical Imaging, North Billerica, MA). As a pyridazinone analog, ^18F-Flurpiridaz binds to the mitochondrial complex I with high affinity. The combination of high first pass extraction and complex I binding ensure a high uptake in the myocardium with long residence time, due to the high mitochondrial density in the myocardial wall. Data from a rat model have shown that ^18F-Flurpiridaz has an extraction fraction of greater than 90% over the physiological MBF range, which makes it an attractive perfusion tracer. Validation of MBF measured with ^18F-Flurpiridaz has been performed by Nekolla et al. in pigs by comparison to microsphere and ^13N-ammonia flow measurements.
As an example case, kinetic analysis was carried out based on ^18F-Flurpiridaz clinical data. ^18F-Flurpiridaz data was used to determine the local myocardial kinetics used in the simulations. […] In these studies, rest and stress imaging sessions were separated by at least 2 h. First, the rest and stress studies for each of the subjects were analyzed separately. […] For each subject, the acquired stress images were first aligned to the images of the rest study using the nonrigid image registration tool from SPM8 9 Ashburner, J., et al., Hum. Brain Mapp 7, 254-266, 1999). The LV and RV input functions for each subject and each study were extracted with generalized factor analysis on dynamic series (GFADS) (El Fakhri, G., et al., J. Nucl. Med. 46, 1264-1271, 2005; El Fakhri, G., et al., Med. Phys. 33, 1016-1024, 2006). The LV input function was used to approximate the plasma input function. No metabolite correction was performed. Because there is a 2-h gap between the rest and stress studies, the residual myocardial activity from the first tracer is mostly tracer bound to MC 1 and is nearly unaffected by the stressor. The rest and stress image volumes of the heart were segmented into 17 standard segments. Time-activity curves were calculated for each segment. The residual activity from the rest study was estimated and subtracted from the stress time-activity curve. Then, the kinetic parameters were estimated for each segment under the resting state with its 25-min time-activity curve. k3 was fixed as 0.026 (1/min) during the curve fitting. For the time-activity curve of the stress study, only data within the first 7.5 min were used in the curve fitting. After the parameters were estimated for all 17 segments, the cardiac flow reserve (CFR=K1,s/K1,r) of each segment was calculated. For the left anterior descending (LAD) territory, the segments with the two lowest CRF values were selected and the mean of each kinetic parameter was calculated from the estimated parameters of those two segments. The same calculation was repeated for right coronary artery (RCA) and left circumflex (LCX) as well. After two segments were picked for each territory, the kinetic parameters of the other 11 segments were averaged to compute the average kinetic parameters of the normal myocardium. The computation of the kinetic parameters of the normal myocardium, LAD, LCX, and RCA territories was performed separately for each subject. Table 1 summarizes kinetic parameters K1 and k2 estimated from the clinical ^18F-Flurpiridaz studies and used for Monte Carlo simulations.

myocardium [2] = details: rat model, over the physiological MBF range; cited from earlier work
myocardium [3] = details: cited from earlier work
myocardium [4] = assay: 100-min dynamic 18F-Flurpiridaz PET in cynomolgus monkey, 2-compartment model fit; type: in vivo
Text: Due to the relatively short measurements obtained in human studies, longer duration ^18F-Flurpiridaz measurements were made in a healthy 4.1-kg cynomolgus monkey. The animal was imaged under resting state and general anesthesia with 1%-2% isoflurane mixed with 100% oxygen. A 100-min dynamic ^18F-Flurpiridaz PET study, with 1.25 mCi injected dose, was acquired with a microPET P4 system from Concorde Microsystems, Inc. Images were reconstructed with filtered back-projection (FBP) into 24×5-s, 6×30-s, 5×60-s, and 18×300-s frames. The LV and RV input functions were extracted with GFADS. A region of interest was drawn over the myocardium and used to calculate the time-activity curve, which was then fitted to the standard four parameter, two-compartment model, with corrections for blood-to-tissue spillover in Eq. (3). Compartment model kinetic analysis tool (COMKAT) (Muzic Jr., R. F., et al., J. Nucl. Med. 42, 636-645, 2001; Fang, Y. H., et al., J. Nucl. Med. 51, 77-84, 2010) under MATLAB R2009a (Mathworks, Natick MA) was used to perform the nonlinear least squares for parameter estimation with the frame duration used as the statistical weight. After the kinetic parameters were estimated from the 100-min time-activity curve, the data were refit while progressively reducing the observation period. First, K1, k2, f1, and fRV were estimated as a function of study duration of the time-activity curves, ranging from 1 to 10 min. Due to the short measurement periods used, k3 and k4 were fixed to the values estimated by the 100-min data. The parameter variance of each parameter was approximated by the covariance matrix from the nonlinear least squares fitting. Then, the duration of the time-activity curve was fixed to 10 min and estimation of K1, k2, f1, and fRV was repeated with k3 fixed at values ranging from 0 to 0.1, incremented by 0.005. k4 was fixed as the value derived from fitting the 100-min data. Again, variance of each estimated parameter was approximated by the covariance matrix.
Still another aspect of the present system and methods includes ^18F-Flurpiridaz myocardial blood flow estimation using dynamic PET in non-human primates. To evaluate the parameter precision when estimating the MBF, a long dynamic study was conducted on a 4.1-kg cynomolgus monkey and the MBF precision was examined with different durations of data being used for kinetic modeling. A dynamic ^18F-Flurpiridaz imaging study was performed on a microPET P4. The animal was imaged under the resting state for 100 minutes with an injected dose of 1.25 mCi. […] The LV (FIGS. 11A-11B) and RV input function were extracted with GFADS. Time-activity curve from a region of interest drawn over the myocardium was fitted to the 2-compartment model. The estimated parameters are: K1=0.51 (SD=1.5%), k2=0.075 (SD=4.7%), k3=0.026 (SD=10.2%) and k4=0.016 (SD=10.4%). […] To evaluate the precision of K1 and k2, different study durations were used, ranging from one minute to 10 minutes to estimate K1 and k2 (with k3 and k4 fixed) as plotted for K1 in FIG. 14B.

myocardium [5] = assay: Tracer properties in the two-tissue compartment model (extraction, binding ratio); type: in vivo
Text: In another aspect, a flow measurement strategy incorporates knowledge of the basic properties of partially trapped tracers with a two-tissue compartment model, allowing simplifications appropriate to quantitative flow measurements. In this model the tracer can be in one of two states, either free, as the injected molecule, or bound to a receptor. In the example case of ^18F-Flurpiridaz, previous studies have shown that it binds to the mitochondrial complex I. The product of plasma concentration (Cr) and transport rate K1 is the force driving tracer from capillary plasma to the free space. Symbolically, K1 is the plasmato-tissue transport rate, FE, the product of flow F and the unidirectional capillary extraction fraction, E. k2 is a rate constant summarizing the egress from tissue to plasma. The rate constants k3 and k4 provide a summary description of binding and release of tracer. The full operational equation for the two compartment model is well known. In one aspect a focus is directed to the first few minutes after IV injection. […] Second, the ratio k3/(k2+k3), is between 0.2-0.6, meaning that after the first few minutes of scanning, about half the tracer entering the tissue space is bound and the effect of binding must be considered when interpreting the data. Third, it has been shown that at least an hour of scanning is required to obtain good estimates of all parameters. […]

mitochondrial complex I = details: cited from earlier work
[6] = Subject 1, LAD territory, Stress
[7] = Subject 1, LCX territory, Stress
[8] = Subject 1, Normal myocardium, Rest
[9] = Subject 1, Normal myocardium, Stress
[10] = Subject 1, RCA territory, Stress
[11] = Subject 2, LAD territory, Stress
[12] = Subject 2, LCX territory, Stress
[13] = Subject 2, Normal myocardium, Rest
[14] = Subject 2, Normal myocardium, Stress
[15] = Subject 2, RCA territory, Stress
[16] = Subject 3, LAD territory, Stress
[17] = Subject 3, LCX territory, Stress
[18] = Subject 3, Normal myocardium, Rest
[19] = Subject 3, Normal myocardium, Stress
[20] = Subject 3, RCA territory, Stress
[21] = resting state, 100 minutes of data, 1.25 mCi

Compound: Nc1ncnc2c1ncn2[C@@H]1O[C@H](CO)[C@@H](O)[C@H]1O [adenosine]
time to reach the peak hyperemia (myocardial blood flow): 1.5 min

Compound: OCCN(CCO)c1nc(N2CCCCC2)c2nc(N(CCO)CCO)nc(N3CCCCC3)c2n1 [dipyridamole]
time to reach the peak hyperemia (myocardial blood flow): 6.5 min

K1 (myocardium [1]; Subject 1, LAD territory, Rest): 0.56
k2 (myocardium [1]; Subject 1, LAD territory, Rest): 0.07
K1 (myocardium [1]; [6]): 1.04
k2 (myocardium [1]; [6]): 0.05
K1 (myocardium [1]; Subject 1, LCX territory, Rest): 0.58
k2 (myocardium [1]; Subject 1, LCX territory, Rest): 0.08
K1 (myocardium [1]; [7]): 0.99
k2 (myocardium [1]; [7]): 0.05
K1 (myocardium [1]; [8]): 0.68
k2 (myocardium [1]; [8]): 0.08
K1 (myocardium [1]; [9]): 1.96
k2 (myocardium [1]; [9]): 0.07
K1 (myocardium [1]; Subject 1, RCA territory, Rest): 0.74
k2 (myocardium [1]; Subject 1, RCA territory, Rest): 0.08
K1 (myocardium [1]; [10]): 1.26
k2 (myocardium [1]; [10]): 0.08
K1 (myocardium [1]; Subject 2, LAD territory, Rest): 0.78
k2 (myocardium [1]; Subject 2, LAD territory, Rest): 0.11
K1 (myocardium [1]; [11]): 1.60
k2 (myocardium [1]; [11]): 0.07
K1 (myocardium [1]; Subject 2, LCX territory, Rest): 0.94
k2 (myocardium [1]; Subject 2, LCX territory, Rest): 0.13
K1 (myocardium [1]; [12]): 2.10
k2 (myocardium [1]; [12]): 0.10
K1 (myocardium [1]; [13]): 0.738 and 0.74
k2 (myocardium [1]; [13]): 0.108 and 0.11
K1 (myocardium [1]; [14]): 2.292 and 2.29
k2 (myocardium [1]; [14]): 0.118 and 0.12
K1 (myocardium [1]; Subject 2, RCA territory, Rest): 0.68
k2 (myocardium [1]; Subject 2, RCA territory, Rest): 0.08
K1 (myocardium [1]; [15]): 1.43
k2 (myocardium [1]; [15]): 0.11
K1 (myocardium [1]; Subject 3, LAD territory, Rest): 0.64
k2 (myocardium [1]; Subject 3, LAD territory, Rest): 0.04
K1 (myocardium [1]; [16]): 1.58
k2 (myocardium [1]; [16]): 0.18
K1 (myocardium [1]; Subject 3, LCX territory, Rest): 0.69
k2 (myocardium [1]; Subject 3, LCX territory, Rest): 0.05
K1 (myocardium [1]; [17]): 1.61
k2 (myocardium [1]; [17]): 0.24
K1 (myocardium [1]; [18]): 0.60
k2 (myocardium [1]; [18]): 0.05
K1 (myocardium [1]; [19]): 2.09
k2 (myocardium [1]; [19]): 0.23
K1 (myocardium [1]; Subject 3, RCA territory, Rest): 0.58
k2 (myocardium [1]; Subject 3, RCA territory, Rest): 0.03
K1 (myocardium [1]; [20]): 0.68
k2 (myocardium [1]; [20]): 0.17
estimated K1 as a function of the nominal value of k3 (myocardium [4]; rest state, k3 fixed at values between 0 and 0.1 min^-1 (FIG. 2B)): 0.498 to 0.507
K1 (myocardium [4]; [21]): 0.51 (SD=1.5%)
k2 (myocardium [4]; [21]): 0.075 (SD=4.7%)
k3 (myocardium [4]; [21]): 0.026 (SD=10.2%)
k4 (myocardium [4]; [21]): 0.016 (SD=10.4%)
ratio k3/(k2+k3) (myocardium [5]): 0.2-0.6
Compound: CC(C)(C)n1ncc(OCc2ccc(COCCF)cc2)c(Cl)c1=O [18F-Flurpiridaz]
extraction fraction (myocardium [2]): greater than 90%
unidirectional extraction fraction (myocardium [3]; at all physiological flow rates): greater than 90%
first-pass extraction (myocardium [3]; in the coronary circulation): nearly complete
binding to mitochondrial complex I (mitochondrial complex I): high affinity
